Assay results published in US8153808B2, “Dihydropyridone amides as P2X7 modulators” (Roche Palo Alto LLC, priority 2008, dated 2012).

Target: T1, P2X7 (UniProt Q99572)
T1 sequence (Q99572 1-595): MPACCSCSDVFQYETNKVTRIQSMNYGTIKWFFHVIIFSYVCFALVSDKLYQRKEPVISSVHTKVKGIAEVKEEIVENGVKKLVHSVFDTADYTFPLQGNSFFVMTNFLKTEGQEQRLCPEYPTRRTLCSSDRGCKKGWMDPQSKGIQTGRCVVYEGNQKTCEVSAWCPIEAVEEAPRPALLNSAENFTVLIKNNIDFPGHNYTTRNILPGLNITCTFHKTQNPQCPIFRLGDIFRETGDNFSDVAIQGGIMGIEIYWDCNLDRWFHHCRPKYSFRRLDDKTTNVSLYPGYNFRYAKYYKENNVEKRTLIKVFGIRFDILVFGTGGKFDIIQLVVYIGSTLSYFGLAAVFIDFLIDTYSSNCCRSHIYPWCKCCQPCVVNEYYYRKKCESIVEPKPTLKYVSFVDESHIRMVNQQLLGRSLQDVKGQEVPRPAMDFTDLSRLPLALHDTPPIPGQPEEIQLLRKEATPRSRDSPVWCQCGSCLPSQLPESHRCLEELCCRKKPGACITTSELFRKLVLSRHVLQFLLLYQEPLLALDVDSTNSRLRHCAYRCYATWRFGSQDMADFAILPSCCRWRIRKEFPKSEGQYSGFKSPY
Assay: pIC50 values for P2X7 (Table 1)
Format: cell-based
Method: Intracellular Calcium Flux (FLIPR) Assay
Stock solutions of compounds were prepared from powders as a 10 mM DMSO stock solution. These solutions were stored at RT during the two week period of these experiments to prevent freeze-thaw of the DMSO stocks. The DMSO stocks were added to the appropriate assay buffer at a concentration of 10 μM, and then diluted serially to the final concentrations that were tested. […] The aqueous solutions of compounds as well as ATP (Sigma A7699) and BzATP (Sigma B6396) were prepared fresh for each day of experiment.
1321N1 cells stably expressing the full length human P2X7 gene (1321N1-hP2X7) and HEK293 cells stably expressing the full length rat P2X7 gene (HEK293-rP2X7) were obtained from the Roche Cell Culture Facility. 1321N1-hP2X7 cells were grown in Dulbecco's Modified Eagle's Medium (DMEM) high glucose supplemented with 10% FBS and 250 μg/mL G418. HEK293-rP2X7 cells were grown in DMEM/F-12 supplemented with 10% FBS, 1 mM CaCl2, 2 mM MgCl2, 2 mM L-Glutamine and 500 μg/ml G418. Cells were split such that they never became >70% confluent.
On the day prior to the experiment, 1321N1-hP2X7 or HEK293-rP2X7 cells were released into suspension with calcium-free PBS+Versene and washed by centrifugation with calcium-free PBS to remove the Versene. Cells were resuspended in growth medium at a density of 2.5×10^5 cells/mL and seeded into black walled, clear bottom 96 well plates (50,000 cells/well) approximately 18 hr prior to intracellular calcium flux experiments.
On the day of the experiment, plates were washed with FLIPR buffer (calcium- and magnesium-free Hank's Balanced Salt Solution (HBSS) supplemented with 10 mM Hepes, 2.5 mM probenecid and 2 mM calcium chloride) using a BIO-TEK 96 channel plate washer and incubated with […] fluo-3 dye at 37° C. for one hr. The dye was then removed by plate washing and the cells were allowed to equilibrate for 20 min at room temperature with antagonist or vehicle (FLIPR buffer). Agonist (100 μM BzATP final concentration for hP2X7; 5 μM BzATP final concentration or rP2X7) was added online with the FLIPR and fluorescence measurements made at 1 sec intervals for 60 sec followed by 3 sec intervals for a further 4 min (5 min total). A final addition of 5 μM ionomycin was made and the maximal BzATP-evoked fluorescence normalized to the maximal ionomycin-evoked fluorescence.

| SMILES | pIC50 P2X7 |
| --- | --- |
| COc1cc(I)c(CC(=O)N2C=CC(=O)CC2c2ccccc2)cc1OC (centres unmarked) [Compound 1, 1-[2-(2-Iodo-4,5-dimethoxy-phenyl)-acetyl]-2-phenyl-2,3-dihydro-1H-pyridin-4-one] | 6.984 |
| COc1cc(I)c(CC(=O)N2C=CC(=O)CC2c2ccccc2C)cc1OC (centres unmarked) [Compound 2, 1-[2-(2-Iodo-4,5-dimethoxy-phenyl)-acetyl]-2-o-tolyl-2,3-dihydro-1H-pyridin-4-one] | 5.963 |
| COc1cc(I)c(CC(=O)N2C=CC(=O)C[C@H]2c2ccccc2)cc1OC [Compound 4, (S)-1-[2-(2-Iodo-4,5-dimethoxy-phenyl)-acetyl]-2-phenyl-2,3-dihydro-1H-pyridin-4-one] | 7.418 |
| COc1cc(I)c(CC(=O)N2C=CC(=O)C[C@@H]2c2ccccc2)cc1OC [Compound 5, (R)-1-[2-(2-Iodo-4,5-dimethoxy-phenyl)-acetyl]-2-phenyl-2,3-dihydro-1H-pyridin-4-one] | 5.425 |
| COc1cc(I)c(CC(=O)N2C=CC(=O)CC2c2ccc(F)cc2)cc1OC (centres unmarked) [Compound 6, 2-(4-Fluoro-phenyl)-1-[2-(2-iodo-4,5-dimethoxy-phenyl)-acetyl]-2,3-dihydro-1H-pyridin-4-one] | 6.97 |
| COc1ccc(Br)c(CC(=O)N2C=CC(=O)CC2c2ccccc2)c1 (centres unmarked) [Compound 7, 1-[2-(2-Bromo-5-methoxy-phenyl)-acetyl]-2-phenyl-2,3-dihydro-1H-pyridin-4-one] | 6.765 |
| COc1ccc(CC(=O)N2C=CC(=O)CC2c2ccccc2)c(Br)c1 (centres unmarked) [Compound 8, 1-[2-(2-Bromo-4-methoxy-phenyl)-acetyl]-2-phenyl-2,3-dihydro-1H-pyridin-4-one] | 5.685 |
| COc1cc(Br)c(CC(=O)N2C=CC(=O)CC2C(C)C)cc1OC (centres unmarked) [Compound 9, 1-[2-(2-Bromo-4,5-dimethoxy-phenyl)-acetyl]-2-isopropyl-2,3-dihydro-1H-pyridin-4-one] | 5.45 |
| COc1cc(Br)c(CC(=O)N2C=CC(=O)CC2C2CCCCC2)cc1OC (centres unmarked) [Compound 10, 1-[2-(2-Bromo-4,5-dimethoxy-phenyl)-acetyl]-2-cyclohexyl-2,3-dihydro-1H-pyridin-4-one] | 7.193 |
| COc1cc(Cl)c(CC(=O)N2C=CC(=O)CC2c2ccccc2)cc1OC (centres unmarked) [Compound 11, 1-[2-(2-Chloro-4,5-dimethoxy-phenyl)-acetyl]-2-phenyl-2,3-dihydro-1H-pyridin-4-one] | 6.806 |
| O=C1C=CN(C(=O)Cc2cc3c(cc2Br)OCCO3)C(c2ccccc2)C1 (centres unmarked) [Compound 12, 1-[2-(7-Bromo-2,3-dihydro-benzo[1,4]dioxin-6-yl)-acetyl]-2-phenyl-2,3-dihydro-1H-pyridin-4-one] | 5.305 |
| COc1cc(Br)c(CC(=O)N2C=CC(=O)C[C@H]2c2ccccc2)cc1OC [Compound 13, (S)-1-[2-(2-Bromo-4,5-dimethoxy-phenyl)-acetyl]-2-phenyl-2,3-dihydro-1H-pyridin-4-one] | 7.22 |
| COc1cc(Cl)c(CC(=O)N2C=CC(=O)C[C@H]2c2ccccc2)cc1OC [Compound 14, (S)-1-[2-(2-Chloro-4,5-dimethoxy-phenyl)-acetyl]-2-phenyl-2,3-dihydro-1H-pyridin-4-one] | 6.705 |
| COc1cc(CC(=O)N2C=CC(=O)CC2c2ccccc2)c(C(F)(F)F)cc1OC (centres unmarked) [Compound 15, 1-[2-(4,5-Dimethoxy-2-trifluoromethyl-phenyl)-acetyl]-2-phenyl-2,3-dihydro-1H-pyridin-4-one] | 5.395 |
| CCOc1cc(CC(=O)N2C=CC(=O)C[C@H]2c2ccc(F)cc2)c(Br)cc1OC [Compound 16, (S)-1-[2-(2-Bromo-5-ethoxy-4-methoxy-phenyl)-acetyl]-2-(4-fluoro-phenyl)-2,3-dihydro-1H-pyridin-4-one] | 7.17 |
| CCOc1cc(Br)c(CC(=O)N2C=CC(=O)C[C@H]2c2ccc(F)cc2)cc1OC [Compound 17, (S)-1-[2-(2-Bromo-4-ethoxy-5-methoxy-phenyl)-acetyl]-2-(4-fluoro-phenyl)-2,3-dihydro-1H-pyridin-4-one] | 6.535 |
| COc1cc(Br)c(CC(=O)N2C=CC(=O)C[C@H]2c2ccc(F)cc2)cc1OCC1CC1 [Compound 18, (S)-1-[2-(2-Bromo-5-cyclopropylmethoxy-4-methoxy-phenyl)-acetyl]-2-(4-fluoro-phenyl)-2,3-dihydro-1H-pyridin-4-one] | 6.93 |
| COc1cc(Br)c(CC(=O)N2C=CC(=O)C[C@H]2c2ccc(F)cc2)cc1OC [Compound 19, (S)-1-[2-(2-Bromo-4,5-dimethoxy-phenyl)-acetyl]-2-(4-fluoro-phenyl)-2,3-dihydro-1H-pyridin-4-one] | 7.6125 |
| COc1cc(CC(=O)N2C=CC(=O)C[C@H]2c2ccc(F)cc2)c(Br)cc1OCC1CC1 [Compound 20, (S)-1-[2-(2-Bromo-4-cyclopropylmethoxy-5-methoxy-phenyl)-acetyl]-2-(4-fluoro-phenyl)-2,3-dihydro-1H-pyridin-4-one] | 6.08 |
| COc1cc(Br)c(CC(=O)N2C=CC(=O)CC2c2ccc(F)cc2)cc1OC (centres unmarked) [Compound 22, 1-[2-(2-Bromo-4,5-dimethoxy-phenyl)-acetyl]-2-(4-fluoro-phenyl)-2,3-dihydro-1H-pyridin-4-one] | 7.165 |
| COc1cc(Br)c(CC(=O)N2C=CC(=O)C[C@H]2c2ccc(F)cc2)cc1OC(F)F [Compound 24, (S)-1-[2-(2-Bromo-5-difluoromethoxy-4-methoxy-phenyl)-acetyl]-2-(4-fluoro-phenyl)-2,3-dihydro-1H-pyridin-4-one] | 6.305 |
| COc1cc(Br)c(CC(=O)N2C=CC(=O)CC2c2cccc(Cl)c2)cc1OC (centres unmarked) [Compound 25, 1-[2-(2-Bromo-4,5-dimethoxy-phenyl)-acetyl]-2-(3-chloro-phenyl)-2,3-dihydro-1H-pyridin-4-one] | 6.28 |
| O=C1C=CN(C(=O)Cc2cc(OC(F)F)c(OC(F)F)cc2Br)[C@H](c2ccc(F)cc2)C1 [Compound 26, (S)-1-[2-(2-Bromo-4,5-bis-difluoromethoxy-phenyl)-acetyl]-2-(4-fluoro-phenyl)-2,3-dihydro-1H-pyridin-4-one] | 5.895 |
| COc1cc(Br)c(CC(=O)N2C=CC(=O)CC2C2CCCC2)cc1OC (centres unmarked) [Compound 27, 1-[2-(2-Bromo-4,5-dimethoxy-phenyl)-acetyl]-2-cyclopentyl-2,3-dihydro-1H-pyridin-4-one] | 6.35 |
| COc1cccc(C2CC(=O)C=CN2C(=O)Cc2cc(OC)c(OC)cc2Br)c1 (centres unmarked) [Compound 28, 1-[2-(2-Bromo-4,5-dimethoxy-phenyl)-acetyl]-2-(3-methoxy-phenyl)-2,3-dihydro-1H-pyridin-4-one] | 5.415 |
| COc1cc(CC(=O)N2C=CC(=O)C[C@H]2c2ccc(F)cc2)c(Br)cc1C [Compound 29, (S)-1-[2-(2-Bromo-5-methoxy-4-methyl-phenyl)-acetyl]-2-(4-fluoro-phenyl)-2,3-dihydro-1H-pyridin-4-one] | 6.625 |
| COc1cc(CC(=O)N2C=CC(=O)C[C@H]2c2ccc(F)cc2)c(Br)cc1Cl [Compound 30, (S)-1-[2-(2-Bromo-4-chloro-5-methoxy-phenyl)-acetyl]-2-(4-fluoro-phenyl)-2,3-dihydro-1H-pyridin-4-one] | 6.4 |
| COc1cc(CC(=O)N2C=CC(=O)CC2c2ccc(F)cc2)c(Br)cc1C (centres unmarked) [Compound 31, 1-[2-(2-Bromo-5-methoxy-4-methyl-phenyl)-acetyl]-2-(4-fluoro-phenyl)-2,3-dihydro-1H-pyridin-4-one] | 6.59 |
| COc1cc(CC(=O)N2C=CC(=O)CC2c2ccc(F)cc2)c(Br)cc1Cl (centres unmarked) [Compound 32, 1-[2-(2-Bromo-4-chloro-5-methoxy-phenyl)-acetyl]-2-(4-fluoro-phenyl)-2,3-dihydro-1H-pyridin-4-one] | 6.17 |
